In patent US20100221398A1, “PRESERVATIVE” (priority 2007, published 2010):

What was measured:
A. niger conidiospores = test: Mould growth in bottles containing 1 mM 4-MCA + 1 mM putative inhibitor; format: cell-based, Aspergillus niger; details: 1 mM 4-MCA + 1 mM compound
Method: (§1) All compounds were tested to see if they prevented the degradation of 4-MCA by adding 10^6 A. niger conidiospores/ml to ACM medium at pH 4.0 containing 1 mM 4-methylcinnamic acid+1 mM putative inhibitor. Bottles were incubated at 28° C. and shaken at 120 rpm on an orbital shaker. Samples were taken at 5 and 72 hours.
Furthermore, other compounds generally more mould-toxic than the compounds listed in Table 2, were not able to inhibit mould growth when allied with 4-MCA at 1 mM e.g. (2,4-decadienal).

[1] = system: A. niger N402 conidiospores; test: MIC determination in ACM medium pH 4.0; format: cell-based, Aspergillus niger; details: 1000 A. niger N402 conidiospores/ml, ACM pH 4.0, 28 C, 28 days, triplicate
Method: The possibility that the compounds found to inhibit 4-MCA degradation were acting as toxic agents was examined, by determination of their MIC (Minimum Inhibitory Concentration) values. The MIC value is the lowest concentration of inhibitor that will completely prevent growth of a microbe. In this case, MIC values were determined by preparation of a triplicate series of bottles of ACM medium (pH 4.0 10 mls) each bottle containing progressively higher concentrations of an inhibitor. Bottles were inoculated with 1000 A. niger N402 conidiospores/ml and were incubated at 28° C. for 28 days. The MIC was the lowest concentration of inhibitor preventing mould growth in all three replicates, and any other higher concentration of inhibitor.

[2] = system: PadA1 activity in A. niger conidiospores; test: 4-MCA cloud disappearance (OD 600 nm) assay for PadA1 activity in mould spores; format: cell-based, Aspergillus niger; details: 1 mM 4-methylcinnamic acid + 1 mM putative inhibitor, 10^6 conidiospores/ml, ACM pH 4.0, 28 C, samples at 5 and 72 hours
Method: FIG. 2—illustrates the disappearance of the dense cloud of 4-methylcinnamic acid after addition of A. niger spores. The strain of A. niger used is A. niger N402. 10^6 A. niger conidiospores/ml were added to ACM medium (Aspergillus Complete Medium—which contains per one litre of water, 20 g glucose, 1.5 g casamino acids, 2 g bacteriological peptone, 1.5 g yeast extract, 6 g […], 0.52 g potassium chloride, 0.52 g magnesium sulphate heptahydrate, 1.52 g potassium orthophosphate, 1 mg ferrous sulphate, 1 mg zinc sulphate) at pH 4.0 containing 1 mM 4-methylcinnamic acid at time 0. Replicate cultures of 10 mls medium in 30 ml sealed bottles were incubated at 28° C. and shaken at 120 rpm on an orbital shaker. Each point represents the mean value of two bottles removed, sampled, and tested in a spectrophotometer at 600 nm;
10^6 A. niger conidiospores/ml were added to ACM medium at pH 4.0 containing 1 mM 4-methylcinnamic acid at time 0 (control—circles). Replicate cultures contained 1 mM 4-methylcinnamic acid+1 mM cinnamaldehyde (squares). Bottles were incubated at 28° C. and shaken at 120 rpm on an orbital shaker.
In the examples below a carboxylic acid similar to sorbic acid was used as it has unexpected properties which allow it to be easily assayed. The acid used was 4-methylcinnamic acid (4-MCA), which like sorbic acid is degraded by A. niger spores.
Unexpectedly 4-MCA forms a dense white cloud when added to water or growth media for moulds (such as ACM). The opacity of the cloud, when measured at an OD of 600 nm, is directly proportional to the concentration of 4-MCA. This makes it easy to assay for changes in 4-MCA levels. Up until now degradation of 4-MCA and sorbic acid has been determined through the detection of the volatile products produced after decarboxylation. The volatile products can be detected by using GCMS (Gas Chromatography/Mass Spectrometry), which is a slow and time consuming process.
It is understood that PadA1 in the germinating mould spores degrades the 4-MCA causing the white cloud to progressively disappear. Cloud disappearance is also accompanied by appearance of 4-methylstyrene in the headspace above the liquid medium (as illustrated in FIG. 3), which is measured by GCMS.
as §1

[3] = system: Aspergillus niger strain N402 conidiospores; test: Spoilage of synthetic soft drink (ACM pH 4.0) with 300 ppm sorbic acid; format: cell-based; details: 300 ppm sorbic acid (2.68 mM) without PadA1 inhibitor, 28 days at 28 C
Method: Tests were carried out using ACM medium, pH 4.0, as a synthetic soft drink. Sorbic acid was added to the ACM, synthetic soft drink, at 300 ppm, which is the maximum level permitted in Europe.
The method used involved placing 10 ml of ACM pH 4.0+300 ppm sorbic acid (2.68 mM) in glass bottles (all experiments were carried out in triplicate) and inncoculating each 10 mls with 1000 conidiospores per ml of Aspergillus niger strain N402. Growth was measured after 28 days incubation at 28° C. PadA1 inhibitors of Formula I were added at 0, 0.025 mM, 0.05 mM, 0.1 mM, 0.15 mM, 0.2 mM, 0.3 mM, 0.4 mM, 0.5 mM, 0.6 mM, 0.8 mM, 1 mM.

With `CCC=CC=CC=O` [2,4-Heptadienal] as the molecule, how does the “mould growth in bottles with 4-MCA + compound” value (A. niger conidiospores) read?
The value was “not”.

Which “MIC (Minimum Inhibitory Concentration), comparison in words” value [1] does the source give for `CCCCCC=CC=CC=O` [2,4-decadienal] here?
The value was “lower MIC than any of the compounds listed on Table 2”.

And the “inhibition of degradation of 4-MCA by germinating conidiospores of A. niger” value (shortened to “inhibition of degradation of 4-MCA”) [2]?
The value was “does not block PadA1 activity”.

And the “mould growth in bottles with 4-MCA + compound” value (A. niger conidiospores)?
Its value is “Mould growth occurred”.

With `O=CC=Cc1ccccc1` [Cinnamaldehyde] as the molecule, how does the “inhibition of degradation of 4-MCA” value [2] read?
Its value is “inhibits the degradation”.

For `O=C(O)C#Cc1ccccc1` [Phenyl propiolic acid], which “inhibition of degradation of 4-MCA” value [2] is on record?
Its value is “inhibited degradation”.

`O=CC#Cc1ccccc1` [phenyl propargyl aldehyde] was tested. Which “inhibition of degradation of 4-MCA” value [2] did it give?
The value was “inhibited degradation”.

How did the “prevention of spoilage by A. niger conidiospores of the synthetic soft drink, sorbic acid alone” value [3] turn out when `CC=CC=CC(=O)O` [sorbic acid, 2,4-hexadienoic acid] was run?
The value was “insufficient to prevent spoilage”.
